From the Deep4Chem optical property database
Each block holds one molecule with its values, some of them ahead of it.

Assay: photoluminescence quantum yield (fraction); solvent given as SMILES

- photoluminescence quantum yield (in C1CCCCC1): 0.34
- photoluminescence quantum yield (in CC#N): 0.33
- photoluminescence quantum yield (in CO): 0.31
- photoluminescence quantum yield (in O): 0.39
SMILES: Nc1ccc2cn[nH]c2c1

SMILES: O=C1CCCC2=C1CC1=C(CCCC1=O)N2NC(=O)c1ccccc1
- photoluminescence quantum yield (in C1CCOC1): 0.33
- photoluminescence quantum yield (in CC#N): 0.46
- photoluminescence quantum yield (in CC(C)=O): 0.42
- photoluminescence quantum yield (in CCCCCO): 0.42
- photoluminescence quantum yield (in CO): 0.34
- photoluminescence quantum yield (in ClC(Cl)Cl): 0.62
- photoluminescence quantum yield (in ClCCl): 0.31

- photoluminescence quantum yield (in ClC(Cl)Cl): 0.35
SMILES: CN(C)c1ccc(-c2ccc(-c3cc(-c4ccccc4)c(-c4ccccc4)c(-c4ccccc4)c3-c3ccccc3)s2)cc1

- photoluminescence quantum yield (in ClCCl): 0.0685
SMILES: COc1ccc(C2=CC(c3ccccc3)=C(c3ccccc3)C2)c2ccccc12

- photoluminescence quantum yield (in C1COCCO1): 0
- photoluminescence quantum yield (in CC#N): 0
- photoluminescence quantum yield (in CCCCOCCCC): 0
- photoluminescence quantum yield (in CCOC(C)=O): 0
SMILES: Clc1nc(Cl)nc(Nc2ccc3cc4ccccc4cc3c2)n1

- photoluminescence quantum yield (in C1COCCO1): 0.153
SMILES: CC(C)CN1C(=O)/C(=C/c2ccc(C#N)cc2)C=C1c1ccccc1

- photoluminescence quantum yield (in C1CCOC1): 0.006
- photoluminescence quantum yield (in CC#N): 0.006
- photoluminescence quantum yield (in ClC(Cl)Cl): 0.055
- photoluminescence quantum yield (in ClCCl): 0.11
SMILES: COc1ccc2cc(-c3ccc([N+](=O)[O-])cc3)ccc2c1

SMILES: COc1c2ccccc2c(OC)c2c(C#Cc3ccccc3)c3cc4sccc4cc3c(C#Cc3ccccc3)c12
- photoluminescence quantum yield (in C1CCOC1): 0.13
- photoluminescence quantum yield (in Cc1ccccc1): 0.1
- photoluminescence quantum yield (in ClCCl): 0.11

- photoluminescence quantum yield (in ClCCl): 0.11
SMILES: CC(C)c1cccc(C(C)C)c1N1C(=O)c2cccc3c(Oc4ccc(C(C)(C)c5ccccc5)cc4)ccc(c23)C1=O

SMILES: CN(C)CCN(Cc1c2ccccc2c(CN(CCN(C)C)c2ccc([N+](=O)[O-])cc2[N+](=O)[O-])c2ccccc12)c1ccc([N+](=O)[O-])cc1[N+](=O)[O-]
- photoluminescence quantum yield (in C1CCOC1): 0.0052
- photoluminescence quantum yield (in CC#N): 0.00153
- photoluminescence quantum yield (in CC(C)=O): 0.0012
- photoluminescence quantum yield (in CCO): 0.0136
- photoluminescence quantum yield (in CN(C)C=O): 0.00067
- photoluminescence quantum yield (in CO): 0.0387

- photoluminescence quantum yield (in C1CCCCC1): 0.89
- photoluminescence quantum yield (in CCOC(C)=O): 0.93
- photoluminescence quantum yield (in CO): 0.86
SMILES: Cc1ccccc1C1=C2C=c3c(oc4ccc(C(C)(C)C)cc34)=[N+]2[B-](F)(F)n2c1cc1c3cc(C(C)(C)C)ccc3oc12

- photoluminescence quantum yield (in C1CCCCC1): 0.06
- photoluminescence quantum yield (in CC#N): 0.02
- photoluminescence quantum yield (in CCO): 0.026
- photoluminescence quantum yield (in CCOC(C)=O): 0.034
- photoluminescence quantum yield (in CO): 0.025
- photoluminescence quantum yield (in OCC(F)(F)F): 0.022
SMILES: Cc1ccc(C2=C3C=C(I)C=[N+]3[B-](F)(F)n3c2cc(I)c3I)cc1

- photoluminescence quantum yield (in CC#N): 0.47
SMILES: CCOC(=O)c1c2c3c(ccc(F)c3c3cc4c(cc13)[Si](C)(C)O[Si]4(C)C)N(C)C2=O

SMILES: COc1cc2c(cc1C=C(C#N)C#N)c1ccccc1n2C
- photoluminescence quantum yield (in C1CCOC1): 0.002
- photoluminescence quantum yield (in CC#N): 0.003
- photoluminescence quantum yield (in CCOC(C)=O): 0.004
- photoluminescence quantum yield (in CN(C)C=O): 0.005
- photoluminescence quantum yield (in CO): 0.003
- photoluminescence quantum yield (in CS(C)=O): 0.006
- photoluminescence quantum yield (in Cc1ccccc1): 0.003
- photoluminescence quantum yield (in ClC(Cl)Cl): 0.004
- photoluminescence quantum yield (in ClCCl): 0.004

- photoluminescence quantum yield (in CC(=O)N(C)C): 0.024
SMILES: CC(C)(C)c1cc(/C2=C3\C=CC(=N3)/C(c3ccc([N+](=O)[O-])cc3)=c3/cc/c([nH]3)=C(\c3ccc([N+](=O)[O-])cc3)C3=N/C(=C(/c4cc(C(C)(C)C)cc(C(C)(C)C)c4)c4cc2c[nH]4)C=C3)cc(C(C)(C)C)c1

SMILES: c1ccc(-c2nc(-c3ccccc3)nc(-c3cc(-n4c5ccccc5c5ccccc54)c(-n4c5ccccc5c5ccccc54)c(-n4c5ccccc5c5ccccc54)c3)n2)cc1
- photoluminescence quantum yield (in O=P(c1ccccc1)(c1ccccc1)c1ccc2oc3ccc(P(=O)(c4ccccc4)c4ccccc4)cc3c2c1): 0.82
- photoluminescence quantum yield (in O=P(c1ccccc1)(c1ccccc1)c1ccccc1Oc1ccccc1P(=O)(c1ccccc1)c1ccccc1): 1

- photoluminescence quantum yield (in O): 0.27
SMILES: CC[n+]1nc2cc3c4c(c2c2cc(C)ccc21)CCCN4CCC3

SMILES: N#Cc1cc(-n2c3ccccc3c3ccccc32)c(-n2c3ccccc3c3ccccc32)cc1-c1cc(-n2c3ccccc3c3ccccc32)c(-n2c3ccccc3c3ccccc32)cc1C#N
- photoluminescence quantum yield (in Cc1ccccc1): 0.46

- photoluminescence quantum yield (in CC(C)O): 0.14
SMILES: CCN1C(=CC2=C([O-])C(=Cc3[se]c4ccccc4[n+]3CC)C2=O)[Se]c2ccccc21

- photoluminescence quantum yield (in ClCCl): 0.28
SMILES: C(#Cc1cccc2ccccc12)c1ncc(-c2ccccc2)o1

- photoluminescence quantum yield (in ClCCl): 0.14
SMILES: CCCCN(CCCC)c1ccc(C#Cc2cc(C#Cc3c(F)c(F)c(F)c(F)c3F)c(C#Cc3ccc(N(CCCC)CCCC)cc3)cc2C#Cc2c(F)c(F)c(F)c(F)c2F)cc1

SMILES: C(#Cc1ccc(N(c2ccc(C#Cc3ccc(-c4cc(-c5ccccc5)nc(-c5ccccc5)c4)cc3)cc2)c2ccc(C#Cc3ccc(-c4cc(-c5ccccc5)nc(-c5ccccc5)c4)cc3)cc2)cc1)c1ccc(-c2cc(-c3ccccc3)nc(-c3ccccc3)c2)cc1
- photoluminescence quantum yield (in C1CCOC1): 0.12
- photoluminescence quantum yield (in Cc1ccccc1): 0.16

- photoluminescence quantum yield (in ClCCl): 0.09
SMILES: COc1cc2c3sc4ccccc4c3c3cncnc3c2c(OC)c1OC

- photoluminescence quantum yield (in CCOC(C)=O): 0.95
SMILES: c1cc2ccc3cc4[nH]ccc4c4ccc(c1)c2c34

- photoluminescence quantum yield (in ClCCl): 0.32
SMILES: CCCCC(CC)COc1cc(OCC(CC)CCCC)c2c#cc3ccc4c(c3)c3cc(c#cc5cc(c#cc6ccc7c(c6)c6cc(c#cc1c2)ccc6n7CC(CC)CCCC)c(C(CCCC)OCCC)cc5C(CCCC)OCCC)ccc3n4CC(CC)CCCC (stereo unspecified)

- photoluminescence quantum yield (in ClCCl): 0.72
SMILES: O=C(O)C1=C(C(=O)O)C2=C[C@H]3c4ccccc4[C@]2(S1)c1ccccc13

- photoluminescence quantum yield (in CC#N): 0.61
- photoluminescence quantum yield (in ClCCl): 0.51
SMILES: COC(=O)c1cc(=O)n(C)c2cc(-c3ccccc3OC)sc12

SMILES: CC1(C)c2ccccc2N(c2ccc(-c3cc(C#N)c(C#N)cc3-c3ccc(N4c5ccccc5C(C)(C)c5ccccc54)cc3)cc2)c2ccccc21
- photoluminescence quantum yield (in Cc1ccccc1): 0.59
- photoluminescence quantum yield (in c1cc(-c2cccc(-n3c4ccccc4c4ccccc43)c2)cc(-n2c3ccccc3c3ccccc32)c1): 0.86

SMILES: COc1cc2c3c4c(c5ccc(C(C)(C)C)cc5c5c(OC)cc(OC)c(c2c(OC)c1OC)c45)=[N+]1C3=Nc2c3c4cc(OC)c(OC)c(OC)c4c4c(OC)cc(OC)c5c6cc(C(C)(C)C)ccc6c(c3c54)n2[B-]1(F)F
- photoluminescence quantum yield (in Cc1ccccc1): 0.13

- photoluminescence quantum yield (in ClCCl): 0.5
SMILES: C=C[Si]1(C)c2ccccc2-c2cc3c(cc21)-c1ccccc1[Si]3(C)C=C (stereo unspecified)

- photoluminescence quantum yield (in ClCCl): 0.66
SMILES: CC1=CC(C)=[N+]2C1=Cc1c(C)c(C3=C(C)C4=Cc5c(C)cc(C)n5[B-](F)(F)[N+]4=C3C)c(C)n1[B-]2(F)F

- photoluminescence quantum yield (in C1COCCO1): 0.44
- photoluminescence quantum yield (in CC#N): 0.02
- photoluminescence quantum yield (in ClCCl): 0.24
SMILES: CCCCN(CCCC)c1ccc(/C=C/c2ccc3nc(/C=C/c4ccc(N(C)C)cc4)c(-c4ccccc4)nc3c2)cc1

- photoluminescence quantum yield (in C1COCCO1): 0.437
SMILES: CC(=O)Nc1ccc(C2=C/C(=C\c3ccc(C#N)cc3)C(=O)O2)cc1

SMILES: CCn1c2ccccc2c2cc(C#Cc3cc(C#Cc4ccc5c(c4)c4ccccc4n5CC)nc(S(C)(=O)=O)n3)ccc21
- photoluminescence quantum yield (in C1CCOC1): 0.74
- photoluminescence quantum yield (in CCOC(C)=O): 0.75
- photoluminescence quantum yield (in CN(C)C=O): 0.59
- photoluminescence quantum yield (in Cc1ccccc1): 0.81
- photoluminescence quantum yield (in ClCCl): 0.46

- photoluminescence quantum yield (in CO): 0.092
SMILES: CC1(C)C(/C=C/C2=C(c3ccc(C(=O)O)cc3)C(=C/C=C3/N(CCCCS(=O)(=O)[O-])c4ccc5ccccc5c4C3(C)C)/CCC2)=[N+](CCCCS(=O)(=O)[O-])c2ccc3ccccc3c21

SMILES: O=C1c2ccccc2-c2ccc(N3CCN(c4ccccc4)CC3)c3cccc1c23
- photoluminescence quantum yield (in C1CCCCC1): 0.424
- photoluminescence quantum yield (in C1CCOC1): 0.123
- photoluminescence quantum yield (in C1COCCO1): 0.42
- photoluminescence quantum yield (in CC1COC(=O)O1): 0.009
- photoluminescence quantum yield (in CC#N): 0.005
- photoluminescence quantum yield (in CC(C)=O): 0.011
- photoluminescence quantum yield (in CCCCCCCCO): 0.018
- photoluminescence quantum yield (in CCCCCO): 0.017
- photoluminescence quantum yield (in CCCCO): 0.014
- photoluminescence quantum yield (in CCCO): 0.021
- photoluminescence quantum yield (in CCO): 0.007
- photoluminescence quantum yield (in CCOC(C)=O): 0.108
- photoluminescence quantum yield (in CN(C)C=O): 0.005
- photoluminescence quantum yield (in CO): 0.004
- photoluminescence quantum yield (in CS(C)=O): 0.004
- photoluminescence quantum yield (in Cc1ccccc1): 0.431
- photoluminescence quantum yield (in ClC(Cl)Cl): 0.348

- photoluminescence quantum yield (in CC#N): 0.47
SMILES: c1ccc(-[c+]2c3ccccc3oc3ccccc32)cc1

SMILES: C=C(C)C(CN1C(=O)c2cccc3cccc(c23)C1=O)OO (stereo unspecified)
- photoluminescence quantum yield (in CCO): 0.002

- photoluminescence quantum yield (in ClCCl): 0.0013
SMILES: CC(C)(C)c1cc(-c2cc3c(cc(-c4cc(C(C)(C)C)cc(C(C)(C)C)c4)n3-c3ccc(C(=C(c4ccccc4)c4ccccc4)c4ccccc4)cc3)n2-c2ccc(C(=C(c3ccccc3)c3ccccc3)c3ccccc3)cc2)cc(C(C)(C)C)c1

- photoluminescence quantum yield (in ClC(Cl)Cl): 0
SMILES: O=CC1=Cc2cocc2C=C(C=O)C1

- photoluminescence quantum yield (in CC#N): 0.46
SMILES: CCOC(=O)c1c2c3c(ccc(OC)c3c3cc4c(cc13)[Si](C)(C)O[Si]4(C)C)N(C)C2=O

- photoluminescence quantum yield (in O): 0.002
SMILES: COc1cc(/C=C/C(=O)O)ccc1O

- photoluminescence quantum yield (in CN(C)C=O): 0.73
- photoluminescence quantum yield (in ClC(Cl)Cl): 0.8
SMILES: O=C1C2=C3c4ccsc4C=CN3C(=O)C2=C2c3ccsc3C=CN12

- photoluminescence quantum yield (in ClC(Cl)Cl): 0.152
SMILES: F[B-]1(F)OC(c2ccc(Br)cc2)=Cc2c3ccccc3c3ccccc3[n+]21

SMILES: c1ccc(-c2nc3ccccc3nc2-c2cc(-n3c4ccccc4c4ccccc43)cc(-n3c4ccccc4c4ccccc43)c2)cc1
- photoluminescence quantum yield (in Cc1ccccc1): 0.19

SMILES: CCCCOC(=O)c1cc(Cl)c2c3c(Cl)cc4c5c(cc(Cl)c(c6c(Oc7ccc(OC)cc7)cc(C(=O)OCCCC)c1c26)c53)C(=O)N(c1c(C(C)C)cccc1C(C)C)C4=O
- photoluminescence quantum yield (in Cc1ccccc1): 0.12

- photoluminescence quantum yield (in CC1CCCO1): 0.83
SMILES: CCCCCCOc1ccc2ccc3oc(=O)cc4cc(OCCCCCC)c1c2c43

SMILES: F[B-]1(F)n2c(c3cccc4cccc2c43)=Nc2cccc[n+]21
- photoluminescence quantum yield (in C1CCOC1): 0.99
- photoluminescence quantum yield (in CC#N): 0.99
- photoluminescence quantum yield (in CCCCCC): 0.99
- photoluminescence quantum yield (in Cc1ccccc1): 0.99
- photoluminescence quantum yield (in ClCCl): 0.99

- photoluminescence quantum yield (in CC#N): 0.012
- photoluminescence quantum yield (in CO): 0.01
- photoluminescence quantum yield (in O): 0.021
SMILES: CN(C)CCCN1c2ccccc2CCc2ccccc21

- photoluminescence quantum yield (in CC#N): 0.018
SMILES: Fc1ccc(-[c+]2c3ccccc3sc3ccccc32)cc1

- photoluminescence quantum yield (in CCCCCC): 0.33
SMILES: CC(C)[Si](C#Cc1c2nc3c(nc2c(C#C[Si](C(C)C)(C(C)C)C(C)C)c2nc4c(nc12)C1c2ccccc2C4c2ccccc21)C1c2ccccc2C3c2ccccc21)(C(C)C)C(C)C
